Reference: PMC5095062, “The novel choline kinase inhibitor ICL-CCIC-0019 reprograms cellular metabolism and inhibits cancer cell growth” (Oncotarget, 2016)

Tests used:
Assay in all cases: Kinase selectivity screen
Format in all cases: biochemical
[1] = target: TIE2 (Homo sapiens, UniProt Q02763); settings: TIE2, 10 μM
Procedure: (§1) The substantially less demanding synthesis of ICL-CCIC-0019 compared with MN58B bears additional advantages. […] This consequently diminished intracellular PCho concentration, and importantly, the incorporation of [^3H]-choline into lipids (Figure 1D). […] To assess kinase specificity, ICL-CCIC-0019 was tested against a panel of 131 human kinases (Figure 1E and Supplementary Table S1). […] Inhibition greater than 20% was attained for insulin-like growth factor 1 (IGF-1R, 35 ± 7% inhibition), mitogen-activated protein kinase-activated protein kinase 3 (MAPKAP-K3, 33 ± 6%), extracellular signal regulated kinase 8 (ERK8, 31 ± 4%), ribosomal S6 kinase 1 (RSK1, 22 ± 6%), and v-erb-a erythroblastic leukemia viral oncogene homolog 4 (HER4, 21 ± 7%).

[2] = target: IRAK1 (Homo sapiens, UniProt P51617); settings: IRAK1, 10 μM
Procedure: as §1

[3] = target: Aurora A (Homo sapiens, UniProt O14965)
Procedure: as §1

[4] = target: DAPK1 (Homo sapiens, UniProt P53355); settings: DAPK1, 10 μM
Procedure: as §1

[5] = target: SmMLCK (Homo sapiens, UniProt Q15746)
Procedure: as §1

[6] = target: MARK1 (Homo sapiens, UniProt Q9P0L2); settings: MARK1, 10 μM
Procedure: as §1

[7] = target: PIM1 (Homo sapiens, UniProt P11309); settings: PIM1, 10 μM
Procedure: as §1

[8] = target: CAMKKb (Homo sapiens, UniProt Q96RR4)
Procedure: as §1

[9] = target: CHK2 (Homo sapiens, UniProt O96017); settings: CHK2, 10 μM
Procedure: as §1

[10] = target: MAPKAP-K3 (Homo sapiens, UniProt Q16644); settings: MAPKAP-K3, 10 μM
Sequence of MAPKAP-K3 (Q16644 whole entry): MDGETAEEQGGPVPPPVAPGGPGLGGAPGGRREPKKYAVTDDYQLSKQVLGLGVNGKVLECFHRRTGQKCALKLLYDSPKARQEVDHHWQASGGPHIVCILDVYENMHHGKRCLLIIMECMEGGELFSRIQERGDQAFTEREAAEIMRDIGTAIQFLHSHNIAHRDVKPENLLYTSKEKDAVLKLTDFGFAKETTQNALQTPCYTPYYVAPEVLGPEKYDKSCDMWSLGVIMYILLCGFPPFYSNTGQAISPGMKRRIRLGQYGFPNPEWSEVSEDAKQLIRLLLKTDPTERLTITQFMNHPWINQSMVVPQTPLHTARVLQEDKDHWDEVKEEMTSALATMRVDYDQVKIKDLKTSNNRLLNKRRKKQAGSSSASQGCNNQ
Procedure: as §1

[11] = target: JNK3 (Homo sapiens, UniProt P53779); settings: JNK3, 10 μM
Procedure: as §1

[12] = target: TAO1 (Homo sapiens, UniProt Q7L7X3); settings: TAO1, 10 μM
Procedure: as §1

[13] = target: RSK2 (Homo sapiens, UniProt P51812); settings: RSK2, 10 μM
Procedure: as §1

[14] = target: EIF2AK3 (Homo sapiens, UniProt Q9NZJ5); settings: EIF2AK3, 10 μM
Procedure: as §1

[15] = target: SRPK1 (Homo sapiens, UniProt Q96SB4); settings: SRPK1, 10 μM
Procedure: as §1

[16] = target: BRSK2 (Homo sapiens, UniProt Q8IWQ3); settings: BRSK2, 10 μM
Procedure: as §1

[17] = target: TAK1-TAB1 (Homo sapiens, UniProt O43318); settings: TAK1-TAB1, 10 μM
Procedure: as §1

[18] = target: TESK1 (Homo sapiens, UniProt Q15569); settings: TESK1, 10 μM
Sequence of TESK1 (Q15569 whole entry): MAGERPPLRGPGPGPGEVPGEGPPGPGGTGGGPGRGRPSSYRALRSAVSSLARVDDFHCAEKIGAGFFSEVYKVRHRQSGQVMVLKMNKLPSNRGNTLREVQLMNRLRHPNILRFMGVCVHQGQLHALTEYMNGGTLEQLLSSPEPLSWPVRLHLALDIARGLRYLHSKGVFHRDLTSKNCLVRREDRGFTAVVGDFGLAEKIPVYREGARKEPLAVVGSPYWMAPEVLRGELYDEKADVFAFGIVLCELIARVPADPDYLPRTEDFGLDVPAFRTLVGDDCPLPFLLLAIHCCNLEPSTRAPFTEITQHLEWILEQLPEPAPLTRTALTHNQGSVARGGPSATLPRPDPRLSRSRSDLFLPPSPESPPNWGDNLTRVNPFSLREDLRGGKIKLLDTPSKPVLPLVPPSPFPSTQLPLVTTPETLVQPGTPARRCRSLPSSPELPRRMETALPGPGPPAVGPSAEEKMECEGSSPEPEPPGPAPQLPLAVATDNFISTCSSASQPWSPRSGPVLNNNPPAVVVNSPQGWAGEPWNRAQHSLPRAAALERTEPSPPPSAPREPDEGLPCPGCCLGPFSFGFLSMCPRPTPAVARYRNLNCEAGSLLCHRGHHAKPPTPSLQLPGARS
Procedure: as §1

[19] = target: EPH-A2 (Homo sapiens, UniProt P29317); settings: EPH-A2, 10 μM
Procedure: as §1

[20] = target: MINK1 (Homo sapiens, UniProt Q8N4C8); settings: MINK1, 10 μM
Procedure: as §1

[21] = target: HER4 (Homo sapiens, UniProt Q15303); settings: HER4, 10 μM
Sequence of HER4 (Q15303 26-1308): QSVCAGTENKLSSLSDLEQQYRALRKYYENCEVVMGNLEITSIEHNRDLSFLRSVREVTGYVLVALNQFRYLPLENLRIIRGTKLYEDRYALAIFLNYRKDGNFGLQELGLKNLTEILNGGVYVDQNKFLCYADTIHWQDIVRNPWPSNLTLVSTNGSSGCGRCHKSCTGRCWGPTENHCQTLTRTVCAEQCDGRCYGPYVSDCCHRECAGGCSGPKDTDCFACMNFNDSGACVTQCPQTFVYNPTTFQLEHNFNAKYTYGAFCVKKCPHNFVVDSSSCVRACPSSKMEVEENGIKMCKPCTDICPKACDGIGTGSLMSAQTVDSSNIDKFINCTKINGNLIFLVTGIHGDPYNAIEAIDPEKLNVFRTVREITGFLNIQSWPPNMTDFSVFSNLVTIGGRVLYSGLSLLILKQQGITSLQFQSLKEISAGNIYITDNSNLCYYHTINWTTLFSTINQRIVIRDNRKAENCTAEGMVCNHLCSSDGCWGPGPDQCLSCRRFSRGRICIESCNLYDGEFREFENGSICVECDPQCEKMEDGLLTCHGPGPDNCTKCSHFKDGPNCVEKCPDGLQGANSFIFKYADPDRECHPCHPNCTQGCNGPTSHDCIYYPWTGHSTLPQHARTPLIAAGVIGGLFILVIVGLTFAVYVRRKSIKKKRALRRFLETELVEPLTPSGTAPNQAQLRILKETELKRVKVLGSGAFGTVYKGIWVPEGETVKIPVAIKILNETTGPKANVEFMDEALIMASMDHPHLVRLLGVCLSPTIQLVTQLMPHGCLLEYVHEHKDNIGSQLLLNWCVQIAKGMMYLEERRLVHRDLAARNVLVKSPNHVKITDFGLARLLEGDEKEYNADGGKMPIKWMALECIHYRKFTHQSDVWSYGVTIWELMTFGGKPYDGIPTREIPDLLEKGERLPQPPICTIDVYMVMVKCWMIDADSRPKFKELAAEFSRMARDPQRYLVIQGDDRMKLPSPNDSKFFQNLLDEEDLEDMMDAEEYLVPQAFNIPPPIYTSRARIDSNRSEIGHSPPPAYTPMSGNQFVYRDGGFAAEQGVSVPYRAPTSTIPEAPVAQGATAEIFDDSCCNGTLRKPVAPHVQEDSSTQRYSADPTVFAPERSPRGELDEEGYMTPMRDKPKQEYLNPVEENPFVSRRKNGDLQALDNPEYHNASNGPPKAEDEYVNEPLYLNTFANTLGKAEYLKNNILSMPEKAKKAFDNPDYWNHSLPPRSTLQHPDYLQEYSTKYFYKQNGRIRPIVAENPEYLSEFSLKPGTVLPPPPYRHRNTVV
Procedure: as §1

[22] = target: PKCa (Homo sapiens, UniProt P17252)
Procedure: as §1

[23] = target: RSK1 (Homo sapiens, UniProt Q15418); settings: RSK1, 10 μM
Sequence of RSK1 (Q15418 whole entry): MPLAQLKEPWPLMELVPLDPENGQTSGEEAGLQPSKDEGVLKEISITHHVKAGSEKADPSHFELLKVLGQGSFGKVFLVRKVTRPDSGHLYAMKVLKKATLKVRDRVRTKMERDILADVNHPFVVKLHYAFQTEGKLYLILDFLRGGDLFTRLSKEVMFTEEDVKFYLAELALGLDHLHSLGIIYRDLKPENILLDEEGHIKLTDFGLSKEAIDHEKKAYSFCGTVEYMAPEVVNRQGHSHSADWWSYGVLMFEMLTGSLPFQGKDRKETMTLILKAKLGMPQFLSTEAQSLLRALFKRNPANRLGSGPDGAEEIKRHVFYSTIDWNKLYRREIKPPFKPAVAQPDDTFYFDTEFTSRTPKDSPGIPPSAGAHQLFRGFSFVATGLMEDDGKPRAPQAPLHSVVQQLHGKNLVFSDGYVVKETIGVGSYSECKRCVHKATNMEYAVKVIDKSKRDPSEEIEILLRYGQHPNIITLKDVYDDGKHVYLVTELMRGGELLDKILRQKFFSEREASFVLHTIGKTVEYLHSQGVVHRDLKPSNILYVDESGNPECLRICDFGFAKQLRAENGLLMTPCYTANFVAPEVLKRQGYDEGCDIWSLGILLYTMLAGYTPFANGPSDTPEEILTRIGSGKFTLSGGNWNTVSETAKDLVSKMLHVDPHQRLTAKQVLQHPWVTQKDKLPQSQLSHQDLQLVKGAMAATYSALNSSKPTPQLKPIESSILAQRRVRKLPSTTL
Procedure: as §1

[24] = target: DDR2 (Homo sapiens, UniProt Q16832); settings: DDR2, 10 μM
Procedure: as §1

[25] = target: MARK2 (Homo sapiens, UniProt Q7KZI7); settings: MARK2, 10 μM
Sequence of MARK2 (Q7KZI7 whole entry): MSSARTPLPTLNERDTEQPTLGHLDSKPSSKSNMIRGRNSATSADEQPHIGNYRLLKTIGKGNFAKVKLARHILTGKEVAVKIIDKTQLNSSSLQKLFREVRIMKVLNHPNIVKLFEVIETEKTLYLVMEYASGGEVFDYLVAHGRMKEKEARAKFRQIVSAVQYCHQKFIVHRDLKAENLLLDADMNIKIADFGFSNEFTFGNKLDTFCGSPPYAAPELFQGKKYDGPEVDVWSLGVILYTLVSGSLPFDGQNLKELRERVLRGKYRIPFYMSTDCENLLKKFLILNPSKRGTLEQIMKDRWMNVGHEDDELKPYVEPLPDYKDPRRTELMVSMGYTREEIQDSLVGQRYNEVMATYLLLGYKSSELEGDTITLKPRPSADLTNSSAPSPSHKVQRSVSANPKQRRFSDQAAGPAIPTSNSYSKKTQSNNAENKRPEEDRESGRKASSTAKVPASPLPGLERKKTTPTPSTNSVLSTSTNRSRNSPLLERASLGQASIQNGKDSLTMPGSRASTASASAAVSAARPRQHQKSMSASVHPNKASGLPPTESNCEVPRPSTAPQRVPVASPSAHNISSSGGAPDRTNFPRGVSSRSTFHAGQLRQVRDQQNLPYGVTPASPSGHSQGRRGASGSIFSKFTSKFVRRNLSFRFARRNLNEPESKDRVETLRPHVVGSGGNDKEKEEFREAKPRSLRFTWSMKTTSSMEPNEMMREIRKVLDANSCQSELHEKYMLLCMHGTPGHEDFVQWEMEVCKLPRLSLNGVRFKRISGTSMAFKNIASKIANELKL
Procedure: as §1

[26] = target: MNK2 (Homo sapiens, UniProt Q9HBH9); settings: MNK2, 10 μM
Procedure: as §1

[27] = target: GSK3b (Homo sapiens, UniProt P49841)
Procedure: as §1

[28] = target: RIPK2 (Homo sapiens, UniProt O43353); settings: RIPK2, 10 μM
Procedure: as §1

[29] = target: MELK (Homo sapiens, UniProt Q14680)
Procedure: as §1

[30] = target: MAPKAP-K2 (Homo sapiens, UniProt P49137); settings: MAPKAP-K2, 10 μM
Procedure: as §1

[31] = target: IRR (Homo sapiens, UniProt P14616)
Procedure: as §1

[32] = target: OSR1 (Homo sapiens, UniProt O95747); settings: OSR1, 10 μM
Procedure: as §1

[33] = target: PRK2 (Homo sapiens, UniProt Q16513); settings: PRK2, 10 μM
Procedure: as §1

[34] = target: PKCz (Homo sapiens, UniProt Q05513)
Procedure: as §1

[35] = target: CK1δ (Homo sapiens, UniProt P48730)
Procedure: as §1

Sequence of TIE2 (Q02763 23-1124): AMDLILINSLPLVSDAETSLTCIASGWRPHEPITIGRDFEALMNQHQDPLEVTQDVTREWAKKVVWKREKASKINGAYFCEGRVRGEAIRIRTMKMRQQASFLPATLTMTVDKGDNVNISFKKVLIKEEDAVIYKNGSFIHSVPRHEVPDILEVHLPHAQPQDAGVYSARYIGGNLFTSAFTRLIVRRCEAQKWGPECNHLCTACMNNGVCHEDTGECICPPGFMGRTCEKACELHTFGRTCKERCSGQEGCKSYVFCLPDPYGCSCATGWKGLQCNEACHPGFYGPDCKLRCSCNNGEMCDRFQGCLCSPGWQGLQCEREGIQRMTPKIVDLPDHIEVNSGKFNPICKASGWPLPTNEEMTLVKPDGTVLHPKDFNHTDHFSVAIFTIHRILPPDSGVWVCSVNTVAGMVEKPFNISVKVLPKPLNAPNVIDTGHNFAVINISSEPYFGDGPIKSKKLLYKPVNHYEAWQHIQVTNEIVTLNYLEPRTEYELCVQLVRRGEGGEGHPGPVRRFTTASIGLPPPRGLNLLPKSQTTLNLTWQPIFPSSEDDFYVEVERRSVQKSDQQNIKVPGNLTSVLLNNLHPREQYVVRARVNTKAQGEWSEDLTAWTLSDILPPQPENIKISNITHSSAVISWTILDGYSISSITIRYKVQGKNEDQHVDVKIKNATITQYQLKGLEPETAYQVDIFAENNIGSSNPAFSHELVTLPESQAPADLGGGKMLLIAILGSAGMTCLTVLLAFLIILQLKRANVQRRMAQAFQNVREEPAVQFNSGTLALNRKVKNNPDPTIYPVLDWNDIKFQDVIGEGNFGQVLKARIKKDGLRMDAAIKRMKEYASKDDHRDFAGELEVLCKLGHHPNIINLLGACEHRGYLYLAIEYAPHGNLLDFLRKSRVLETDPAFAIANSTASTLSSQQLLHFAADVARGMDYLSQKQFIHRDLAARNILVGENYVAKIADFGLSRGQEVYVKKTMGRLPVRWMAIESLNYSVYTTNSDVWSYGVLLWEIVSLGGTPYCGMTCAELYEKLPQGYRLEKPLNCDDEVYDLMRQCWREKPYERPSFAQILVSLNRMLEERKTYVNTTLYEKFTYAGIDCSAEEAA

`CN(C)c1cc[n+](CCCCCCCCCCCC[n+]2ccc(N(C)C)cc2)cc1` [ICL-CCIC-0019] gave a remaining activity at 10 µM [1] of 89%, a remaining activity at 10 µM [2] of 89% and a remaining activity at 10 µM [3] of 98%. It also gave a remaining activity at 10 µM [4] of 96%, a remaining activity at 10 µM [5] of 104% and a remaining activity at 10 µM [6] of 103%. For the same compound, the remaining activity at 10 µM [7] was 102%, the remaining activity at 10 µM [8] was 91% and the remaining activity at 10 µM [9] was 90%. The inhibition at 10 µM [10] was 33 ± 6%, the remaining activity at 10 µM [10] was 67% and the remaining activity at 10 µM [11] was 92%. The remaining activity at 10 µM [12] was 100%, the remaining activity at 10 µM [13] was 105% and the remaining activity at 10 µM [14] was 97%. The remaining activity at 10 µM [15] was 106%, the remaining activity at 10 µM [16] was 94% and the remaining activity at 10 µM [17] was 97%. For the same compound, the remaining activity at 10 µM [18] was 101%, the remaining activity at 10 µM [19] was 93% and the remaining activity at 10 µM [20] was 100%. For the same compound, the inhibition at 10 µM [21] was 21 ± 7%, the remaining activity at 10 µM [21] was 79% and the remaining activity at 10 µM [22] was 98%. It also gave an inhibition at 10 µM [23] of 22 ± 6%, a remaining activity at 10 µM [23] of 78% and a remaining activity at 10 µM [24] of 85%. It also gave a remaining activity at 10 µM [25] of 86%, a remaining activity at 10 µM [26] of 96% and a remaining activity at 10 µM [27] of 94%. For the same compound, the remaining activity at 10 µM [28] was 102%, the remaining activity at 10 µM [29] was 106% and the remaining activity at 10 µM [30] was 89%. For the same compound, the remaining activity at 10 µM [31] was 92%, the remaining activity at 10 µM [32] was 99% and the remaining activity at 10 µM [33] was 94%. It also gave a remaining activity at 10 µM [34] of 106% and a remaining activity at 10 µM [35] of 100%.
